Measured values published in patent publication US6420586B1 (priority 2000, dated 2002).

Experiments:
Type in all cases: biochemical
[1] = system: Herpes Simplex Virus Protease
HIV protease = biological target: T1, HIV protease (Human immunodeficiency virus type 1 group M subtype B, UniProt P04585)
T1 construct: a key virally encoded protease enzyme of the pol gene

human cathepsin K = biological target: T2, human cathepsin K (Homo sapiens, UniProt P43235); assay: Inhibition of human cathepsin K (fluorescence peptide assay); details: compound concentration 106 μmolar; pH 5.5, 10 μmolar peptide
T2 sequence (P43235 115-329): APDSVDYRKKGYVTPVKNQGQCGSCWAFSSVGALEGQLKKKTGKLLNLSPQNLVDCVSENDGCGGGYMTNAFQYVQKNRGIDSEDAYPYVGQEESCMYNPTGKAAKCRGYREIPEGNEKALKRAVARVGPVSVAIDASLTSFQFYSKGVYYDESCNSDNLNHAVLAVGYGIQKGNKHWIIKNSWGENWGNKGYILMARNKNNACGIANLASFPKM
Method: The inhibition of human cathepsin K by the compound shown in Scheme N (106 μmolar) was determined. The peptides utilized were chromophoric Z-Phe-Arg-pNA*HCl and fluorogenic Z-Phe-Arg-AMC (each available from BACHEM Bioscience, Inc.). Stock solutions were prepared with 100% dimethylsulfoxide (DMSO) and stored at −20° C.
The final assay conditions were 100 mM NaOAc, pH of 5.5, 10 mM (R,R)-dithiothreitol (DTT), 10% DMSO, 120 mM NaCl, 10 μmolar of the peptide, and 12.5-0.012 μmolar inhibitor in twofold serial dilutions from 20× stocks in 100% DMSO. The enzyme working solution was a 1:3000 dilution of […] human cathepsin K into 100 mM of NaOAc, pH of 5.5, 10 mM DTT, 1.2 M NaCl.
Serial dilutions were performed in 100% DMSO. Columns 2-12 of an intermediate plate were filled with […] of 100% DMSO and column 1 was filled with […]. Next, […] of a 10 mM solution was added to column 1. A twofold serial dilution was prepared in columns 1-11 of the intermediate plate by sequential transfer of […] of the contents of each well in a column to the corresponding well of the next column, with mixing between each transfer. […] The fluorescence was monitored every 6 minutes for 72 minutes using a CytoFluor Series 4000 PerSeptive Biosystems multi-well fluorescence plate reader with the following settings: gain=50; 20 reads/well; 32° C.; lex=360±20 nm; and lem=440±120 nm.

Compound	inhibition of the protease [1]	inhibition of the protease (HIV protease)	inhibition of human cathepsin K (human cathepsin K)
CC(C)(C)OC(=O)NC(Cc1ccccc1)CN1CC=CCN(C[C@H](Cc2ccccc2)NC(=O)OC(C)(C)C)P1(=O)Cl (stereo partly drawn) [Scheme N]	44.4%	23%	34%
COP1(=O)N[C@@H](C(C)C)C=C[C@H](C(C)C)O1 (stereo partly drawn) [Scheme M]	33.5%	–	–
COP1(=O)N(Cc2ccccc2)CC=CCN1Cc1ccccc1 [Scheme K]	25.5%	–	–
C=CCOP1(=O)OCC=CCN1[C@H](C(=O)OC)C(C)C (stereo partly drawn) [Scheme L]	34.7%	–	–
